Experimental data: PMC11971462, “Generation and validation of a novel multitarget small molecule in glioblastoma” (Cell Death & Disease, 2025)

System: GNS166 cells
Assay: Label-free proteomics differential expression
Type: cell-based, human
Procedure: Proteomic studies were performed by the Proteomics Facility of the CIC bioGUNE by label-free relative quantification on nLC MS/MS. […] In both approaches, the top 20 enriched terms were plotted and the pathways were clustered using divisive hierarchical clustering based on pairwise Jaccard distances.

C#CCN(Cc1cc2cc(OCCCN3CCCCC3)ccc2n1S(=O)(=O)c1ccccc1)C(=O)CCCCCCC(=O)NO [DDI]
LogFC THG1_HUMAN (protein Q9NWX6): -0.1726 | Direction F120C_HUMAN (protein Q9NX05): Down | LogFC F120C_HUMAN (protein Q9NX05): -0.4931 | Direction IMPA3_HUMAN (protein Q9NX62): Down | LogFC IMPA3_HUMAN (protein Q9NX62): -2.939 | Direction NSMA3_HUMAN (protein Q9NXE4): Down | LogFC NSMA3_HUMAN (protein Q9NXE4): -1.089 | Direction TRM1_HUMAN (protein Q9NXH9): Down | LogFC TRM1_HUMAN (protein Q9NXH9): -1.158 | Direction GTSE1_HUMAN (protein Q9NYZ3): Down | LogFC GTSE1_HUMAN (protein Q9NYZ3): -2.523 | Direction F120A_HUMAN (protein Q9NZB2): Down | LogFC F120A_HUMAN (protein Q9NZB2): -0.8566 | Direction MYOF_HUMAN (protein Q9NZM1): Down | LogFC MYOF_HUMAN (protein Q9NZM1): -1.514 | LogFC SPN90_HUMAN (protein Q9NZQ3 GN=NCKIPSD): 0.408 | LogFC H2AW_HUMAN (protein Q9P0M6 GN=MACROH2A2): -2.056 | Direction RCC2_HUMAN (protein Q9P258): Down | LogFC RCC2_HUMAN (protein Q9P258): -0.788 | Direction MO4L1_HUMAN (protein Q9UBU8): Down | LogFC MO4L1_HUMAN (protein Q9UBU8): -1.829 | LogFC SE1L1_HUMAN (protein Q9UBV2 GN=SEL1L): 1.64 | Direction CSN7A_HUMAN (protein Q9UBW8): Down | LogFC CSN7A_HUMAN (protein Q9UBW8): -0.366 | Direction QCR9_HUMAN (protein Q9UDW1): Down | LogFC QCR9_HUMAN (protein Q9UDW1): -1.3801 | Direction ABCF2_HUMAN (protein Q9UG63): Down | LogFC ABCF2_HUMAN (protein Q9UG63): -0.9684 | LogFC SEC63_HUMAN (protein Q9UGP8 GN=SEC63): -0.6574 | Direction Z3H7B_HUMAN (protein Q9UGR2): Down | LogFC Z3H7B_HUMAN (protein Q9UGR2): -0.582 | Direction ABC3B_HUMAN (protein Q9UH17): Down | LogFC ABC3B_HUMAN (protein Q9UH17): -2.711 | LogFC PCYOX_HUMAN (protein Q9UHG3 GN=PCYOX1): 1.78 | Direction DDX20_HUMAN (protein Q9UHI6): Down | LogFC DDX20_HUMAN (protein Q9UHI6): -1.492 | LogFC NB5R1_HUMAN (protein Q9UHQ9 GN=CYB5R1): 0.825 | LogFC VATH_HUMAN (protein Q9UI12 GN=ATP6V1H): 0.8971 | LogFC PRAF1_HUMAN (protein Q9UI14 GN=RABAC1): -1.449 | LogFC DDX41_HUMAN (protein Q9UJV9 GN=DDX41): -0.9972 | LogFC CDC23_HUMAN (protein Q9UJX2 GN=CDC23): -0.6966 | Direction APC7_HUMAN (protein Q9UJX3): Down | LogFC APC7_HUMAN (protein Q9UJX3): -0.9681 | LogFC NOCT_HUMAN (protein Q9UK39 GN=NOCT): 0.6965 | LogFC CCNL1_HUMAN (protein Q9UK58 GN=CCNL1): -1.514 | LogFC BORG2_HUMAN (protein Q9UKI2 GN=CDC42EP3): 1.338 | LogFC DEN2A_HUMAN (protein Q9ULE3 GN=DENND2A): -2.086 | Direction HEG1_HUMAN (protein Q9ULI3): Down | LogFC HEG1_HUMAN (protein Q9ULI3): -2.228 | Direction PKHG1_HUMAN (protein Q9ULL1): Down | LogFC PKHG1_HUMAN (protein Q9ULL1): -2.254 | Direction HECD1_HUMAN (protein Q9ULT8): Down | LogFC HECD1_HUMAN (protein Q9ULT8): -1.1597 | Direction TPX2_HUMAN (protein Q9ULW0): Down | LogFC TPX2_HUMAN (protein Q9ULW0): -2.6733 | LogFC SYNRG_HUMAN (protein Q9UMZ2 GN=SYNRG): 0.8469 | Direction MAGD2_HUMAN (protein Q9UNF1): Down | LogFC MAGD2_HUMAN (protein Q9UNF1): -1.225 | Direction DIM1_HUMAN (protein Q9UNQ2): Down | LogFC DIM1_HUMAN (protein Q9UNQ2): -1.324 | Direction CP131_HUMAN (protein Q9UPN4): Down | LogFC CP131_HUMAN (protein Q9UPN4): -0.9726 | Direction TRI33_HUMAN (protein Q9UPN9): Down | LogFC TRI33_HUMAN (protein Q9UPN9): -0.5693 | LogFC BAIP2_HUMAN (protein Q9UQB8 GN=BAIAP2): 0.1397 | LogFC AKAP2_HUMAN (protein Q9Y2D5 GN=AKAP2): 0.8401 | Direction WBP11_HUMAN (protein Q9Y2W2): Down | LogFC WBP11_HUMAN (protein Q9Y2W2): -1.003 | LogFC RM11_HUMAN (protein Q9Y3B7 GN=MRPL11): -0.5878 | Direction UFC1_HUMAN (protein Q9Y3C8): Down | LogFC UFC1_HUMAN (protein Q9Y3C8): -1.4452 | Direction FBX7_HUMAN (protein Q9Y3I1): Down | LogFC FBX7_HUMAN (protein Q9Y3I1): -0.6256 | LogFC SAMH1_HUMAN (protein Q9Y3Z3 GN=SAMHD1): 0.753 | LogFC TRRAP_HUMAN (protein Q9Y4A5 GN=TRRAP): -1.346 | Direction ARIP4_HUMAN (protein Q9Y4B4): Down | LogFC ARIP4_HUMAN (protein Q9Y4B4): -1.479 | LogFC IRS2_HUMAN (protein Q9Y4H2 GN=IRS2): 2.2713 | Direction TBL2_HUMAN (protein Q9Y4P3): Down | LogFC TBL2_HUMAN (protein Q9Y4P3): -0.6001 | LogFC NDK7_HUMAN (protein Q9Y5B8 GN=NME7): 2.17 | Direction PCDGH_HUMAN (protein Q9Y5G0): Down | LogFC PCDGH_HUMAN (protein Q9Y5G0): -2.292 | LogFC CD2AP_HUMAN (protein Q9Y5K6 GN=CD2AP): 0.4294 | LogFC BZW2_HUMAN (protein Q9Y6E2 GN=BZW2): 0.8735 | LogFC OAS3_HUMAN (protein Q9Y6K5 GN=OAS3): -0.7466 | Direction WASF2_HUMAN (protein Q9Y6W5): Down | LogFC WASF2_HUMAN (protein Q9Y6W5): -1.033 | Direction NS1BP_HUMAN (protein Q9Y6Y0): Down | LogFC NS1BP_HUMAN (protein Q9Y6Y0): -2.1021 | LogFC S23IP_HUMAN (protein Q9Y6Y8 GN=SEC23IP): 0.5141 | Direction GLCNE_HUMAN (protein Q9Y223): Down | LogFC GLCNE_HUMAN (protein Q9Y223): -0.915 | LogFC HPSE_HUMAN (protein Q9Y251 GN=HPSE): 0.7253 | Direction EIF3L_HUMAN (protein Q9Y262): Down | LogFC EIF3L_HUMAN (protein Q9Y262): -0.4083 | Direction AAR2_HUMAN (protein Q9Y312): Down | LogFC AAR2_HUMAN (protein Q9Y312): -1.2504 | LogFC SKAP_HUMAN (protein Q9Y448 GN=KNSTRN): -1.456 | Direction TLN1_HUMAN (protein Q9Y490): Down | LogFC TLN1_HUMAN (protein Q9Y490): -0.5101 | LogFC PPME1_HUMAN (protein Q9Y570 GN=PPME1): 1.066 | LogFC FHOD1_HUMAN (protein Q9Y613 GN=FHOD1): 1.204 | LogFC JAM1_HUMAN (protein Q9Y624 GN=F11R): 1.904 | Direction GPC6_HUMAN (protein Q9Y625): Down | LogFC GPC6_HUMAN (protein Q9Y625): -2.082 | Direction S12A7_HUMAN (protein Q9Y666): Down | LogFC S12A7_HUMAN (protein Q9Y666): -2.1239 | LogFC EM55_HUMAN (protein Q00013 GN=MPP1): 0.8133 | Direction NAA25_HUMAN (protein Q14CX7): Down | LogFC NAA25_HUMAN (protein Q14CX7): -1.1158 | Direction PDS5A_HUMAN (protein Q29RF7): Down | LogFC PDS5A_HUMAN (protein Q29RF7): -1.029 | LogFC H1BP3_HUMAN (protein Q53T59 GN=HS1BP3): 2.722 | LogFC GL8D1_HUMAN (protein Q68CQ7 GN=GLT8D1): -1.2539
